For data set [1], the system named is Mus musculus. Briefly: Anticonvulsant activity against maximal electroshock induced seizures (MES) after 0.5 hr at 300 mg/kg; Active. Type of data set: functional, organism-based. Further details: dose 300 mg/kg. For orientation: The maximal electroshock test induces tonic seizures with an electrical stimulus.
The test system of data set [2] is Mus musculus. The data set is described as follows: Anticonvulsant activity against maximal electroshock induced seizures (MES) after 4 hr at 300 mg/kg; Active. Further details: dose 300 mg/kg. Type of data set: functional, organism-based.
Data set [3] concerns Mus musculus. The data set is described as follows: Anticonvulsant activity against subcutaneous administered Metrazol induced seizures (scMET) after 0.5 hr at 100 mg/kg; Active. The data set is classed as functional, organism-based. Further details: dose 100 mg/kg.
Data set [4] has as its system Mus musculus. The data set is described as follows: Anticonvulsant activity against subcutaneous administered Metrazol induced seizures (scMET) after 4 hr at 300 mg/kg; Active. Type of data set: functional, organism-based. Further details: dose 300 mg/kg.
Data set [5] concerns Mus musculus. Briefly: The effective dose of compound was tested against maximal electroshock induced seizures after intraperitoneal administration. The note with it: ip. The data set is classed as functional.
For data set [6], the species on record is Mus musculus. The data set is described as follows: (§1) Time of peak effect was determined for toxicity. Type of data set: organism-based. Further details: unit not given here. The note with it: in vivo.
In data set [7] the test system is Mus musculus. Briefly: The effective dose of compound was tested against subcutaneous administered Metrazol induced seizures after intraperitoneal administration. The data set is classed as functional.
Data set [8] concerns Mus musculus. The data set is described as follows: The Neurologic toxicity by measuring rotarod test after 4 hr at 300 mg/kg; Active. Type of data set: organism-based. Further details: dose 300 mg/kg. The note with it: in vivo. For orientation: In the rotarod test animals must keep their balance on a rotating rod.
The nature of data set [9]: The cytotoxicity after intraperitoneal administration. Type of data set: organism-based. The note with it: mouse, in vivo, ip.
Data set [10] has as its system Mus musculus. Briefly: The Neurologic toxicity by measuring rotarod test after 0.5 hr at 300 mg/kg; Active. Further details: dose 300 mg/kg. The note with it: in vivo. Type of data set: organism-based.
Data set [11] can be described thus: Protective index was calculated (TD50/ED50) in MES assay in mice after intraperitoneal administration. The data set is classed as functional.
Data set [12] can be described thus: Protective index was calculated (TD50/ED50) in scMET assay in mice after intraperitoneal administration. Type of data set: functional.
For data set [13], the species on record is Mus musculus. Briefly: Time of peak effect was determined for activity in MES. The data set is classed as functional. Further details: unit not given here.
Data set [14] deals with Mus musculus. Briefly: Anticonvulsant activity against maximal electroshock induced seizures (MES) after 0.5 h; Not active up to 300 mg/kg. The data set is classed as functional, organism-based. Further details: dose 300 mg/kg.
Data set [15] relates to Mus musculus. The data set is described as follows: Anticonvulsant activity against maximal electroshock induced seizures after 4 hr; Not active up to 300 mg/kg. The data set is classed as functional, organism-based. Further details: dose 300 mg/kg.
In data set [16] the test system is Mus musculus. Briefly: Anticonvulsant activity against subcutaneous administered Metrazol induced seizures (scMET) after 4 hr at 100 mg/kg; Active. Type of data set: functional, organism-based. Further details: dose 100 mg/kg.
For data set [17], the system named is Mus musculus. The data set is described as follows: The effective dose of compound was tested against maximal electroshock induced seizures after intraperitoneal administration; no protection up to 1050 mg/kg. Type of data set: functional, organism-based. Further details: dose 1050 mg/kg.
The test system of data set [18] is Mus musculus. Briefly: (§2) The Neurologic toxicity by measuring rotarod test after 0.5 h; Not active up to 300 mg/kg. The data set is classed as organism-based. Further details: dose 300 mg/kg. The following applies: in vivo.
In data set [19] the test system is Mus musculus. The data set is described as follows: (§3) The Neurologic toxicity by measuring rotarod test after 4 hr; Not active up to 300 mg/kg. Type of data set: organism-based. Further details: dose 300 mg/kg. The following applies: in vivo.
Data set [20] is filed under the species Mus musculus. The data set is described as follows: Time of peak effect activity against maximal electroshock induced seizures. The data set is classed as functional.
Data set [21] is filed under the species Mus musculus. Briefly: Median hypnotic dose by loss of righting reflex. The data set is classed as functional.
The species named for data set [22] is Mus musculus. Described as §1. Type of data set: functional.
A short description of data set [23]: Median lethal dose was measured after 24 hr. The data set is classed as organism-based. The following applies: mouse, in vivo.
For data set [24], the species on record is Mus musculus. Briefly: Time of peak effect toxicity against maximal electroshock induced seizures. The note with it: in vivo. The data set is classed as organism-based.
The subject of data set [25] is Rattus norvegicus. The data set is described as follows: The cytotoxicity after intraperitoneal administration in rat. Type of data set: functional. The note with it: ip.
Data set [26] relates to Mus musculus. The data set is described as follows: Anticonvulsant activity against subcutaneous administered Metrazol induced seizures (scMET) after 0.5 hr; Not active up to 300 mg/kg. Type of data set: functional, organism-based. Further details: dose 300 mg/kg.
Data set [27] deals with Mus musculus. The data set is described as follows: Anticonvulsant activity against subcutaneous administered Metrazol induced seizures (scMET) after 4 hr up to 300 mg/kg. Type of data set: functional, organism-based. Further details: dose 300 mg/kg.
Data set [28] has as its system Mus musculus. Briefly: The Neurologic toxicity by measuring rotarod test after 0.5 h up to 300 mg/kg. The data set is classed as functional, organism-based. Further details: dose 300 mg/kg.
For data set [29], the system named is Mus musculus. The data set is described as follows: The Neurologic toxicity by measuring rotarod test after 4 hr up to 300 mg/kg. Type of data set: functional, organism-based. Further details: dose 300 mg/kg.
Data set [30] has as its system Mus musculus. Briefly: The Neurologic toxicity by measuring rotarod test after 0.5 h; No toxicity up to 300 mg/kg. The data set is classed as organism-based. Further details: dose 300 mg/kg. The following applies: in vivo.
Data set [31] relates to Mus musculus. Briefly: The Neurologic toxicity by measuring rotarod after 4 hr; No toxicity up to 300 mg/kg. The data set is classed as organism-based. Further details: dose 300 mg/kg. The following applies: in vivo.
Data set [32] concerns Mus musculus. The data set is described as follows: Anticonvulsant activity against subcutaneous administered Metrazol induced seizures (scMET) after 4 hr; Not active up to 300 mg/kg. The data set is classed as functional, organism-based. Further details: dose 300 mg/kg.
The test system of data set [33] is Mus musculus. Described as §2. The data set is classed as functional, organism-based. Further details: dose 300 mg/kg.
Data set [34] has as its system Mus musculus. Described as §3. Further details: dose 300 mg/kg. The data set is classed as functional, organism-based.
For data set [35], the species on record is Mus musculus. The data set is described as follows: Median hypnotic dose by loss of righting reflex. Type of data set: functional.
The test system of data set [36] is Mus musculus. The data set is described as follows: The compound was tested for anticonvulsant activity against (subcutaneous administered) Metrazol induced seizures after intraperitoneal administration; No protection up to 100 mg/kg. The data set is classed as functional, organism-based. Further details: dose 100 mg/kg.
The subject of data set [37] is Mus musculus. The data set is described as follows: The compound was tested for anticonvulsant activity against (subcutaneous administered) bicuculline induced seizures after intraperitoneal administration; Protected at 100 mg/ kg. Type of data set: functional, organism-based. Further details: dose 100 mg/ kg.
The species entered for data set [38] is Mus musculus. Briefly: Median lethal dose was measured after 24 hr. Type of data set: functional.
In data set [39] the test system is Mus musculus. Briefly: The effective dose of compound was tested against subcutaneous administered Metrazol induced seizures after intraperitoneal administration; Not effective. Type of data set: functional, organism-based.
Data set [40] has as its system Rattus norvegicus. The data set is described as follows: The effective dose of compound was tested against maximal electroshock induced seizures after oral administration in rat. Type of data set: functional.
In data set [41] the test system is Rattus norvegicus. The data set is described as follows: The effective dose of compound was tested against subcutaneous administered Metrazol induced seizures in rat; Not effective. Type of data set: functional, organism-based.
The nature of another data set: in vivo. The note with it: rat, ip.

Active and inactive are the calls of the source. The rule behind the calls is not given here.

Usually ED50 stands for the dose that gives a 50% effect, or the effect in half of the subjects. Take `O=C1CCC(Cc2ccc(C(F)(F)F)cc2)C(=O)N1` (stereo not given): the outcome in the data set with Mus musculus [1], in the data set with Mus musculus [2], with Mus musculus [3] and in the data set on Mus musculus [4] was Active. Moreover, the ED50 is 126 mg/kg in the data set with Mus musculus [5] and 119 mg/kg in the data set with Mus musculus [7]. In addition, the values for the TPE in the data set listed under Mus musculus [6] and in the data set listed under Mus musculus [13] were 1 and 2, respectively. Also, the Toxicity result with Mus musculus [8] and in the data set with Mus musculus [10] was “Active” throughout. Moreover, the TD50 in data set [9] was determined as 349 mg/kg. Further, the Ratio in [11] is 2.76; in [12], 2.92.

Turning to `CN1C(=O)CCC(Cc2ccc(Cl)cc2Cl)C1=O` (stereo not given), the outcome in the data set with Mus musculus [14] and in the data set on Mus musculus [15] was inactive. Besides, the result with Mus musculus [3] and in the data set on Mus musculus [16] was Active. Besides, the TPE is 2 in the data set filed under Mus musculus [6] and 0.5 in the data set filed under Mus musculus [13]. The ED50 result was “no protection up to 1050 mg/kg” with Mus musculus [17] and 153 mg/kg with Mus musculus [7]. The Toxicity result in the data set on Mus musculus [18] and in the data set with Mus musculus [19] was “Not Active” in each case. In [9], the TD50 is 650 mg/kg. Also, in [12], the Ratio is reported as 4.24.

In general, LD50 refers to the dose expected to kill half of the subjects tested. In the case of `CCC1(c2ccccc2)C(=O)NC(=O)NC1=O` [PHENOBARBITAL], in the data set filed under Mus musculus [20], the Activity was determined as 1 h. This molecule also returned an HD50 in the data set filed under Mus musculus [21] of 135.45 mg/kg. The TPE in the data set filed under Mus musculus [22] is recorded as 0.5; in the data set filed under Mus musculus [13], 1. In addition, the LD50 at 24 h in data set [23] was 265 mg/kg. Besides, the Time of peak effect in the data set listed under Mus musculus [24] is 0.5 h. In the data set on Rattus norvegicus [25], this molecule displayed an ED50 of 61.1 mg/kg.

In the case of `O=C1CCC(Cc2ccccc2)C(=O)N1` (stereo not given), the result in the data set on Mus musculus [1] was Active. Besides, the result in the data set with Mus musculus [15], with Mus musculus [26] and with Mus musculus [27] was inactive. Also, the Toxicity entry with Mus musculus [28] and with Mus musculus [29] was “inactive” each time.

Turning to `COc1ccc(CC2CCC(=O)NC2=O)cc1` (stereo not given), the result in the data set with Mus musculus [14], with Mus musculus [15] and in the data set on Mus musculus [26] was inactive. Further, the outcome with Mus musculus [4] was Active. For the same molecule, the Toxicity result with Mus musculus [30] and in the data set on Mus musculus [31] was “No toxicity up to 300 mg/kg” throughout.

Take `C[Si](C)(C)c1ccc(CC2CCC(=O)NC2=O)cc1` (stereo not given): the result with Mus musculus [32], with Mus musculus [14], in the data set with Mus musculus [15] and in the data set with Mus musculus [26] was inactive. The Toxicity entry with Mus musculus [33] and with Mus musculus [34] was “inactive” throughout.

With `NC(=O)N1c2ccccc2C=Cc2ccccc21` [CARBAMAZEPINE], the TPE in the data set listed under Mus musculus [20] and in the data set listed under Mus musculus [24] was 0.25 each time. Besides, in the data set listed under Mus musculus [35], the HD50 is 172.24 mg/kg. The ED50 entry in the data set on Mus musculus [36], in the data set on Mus musculus [39] and in the data set with Rattus norvegicus [41] was “inactive” throughout. Further, the ED50 entry in the data set with Mus musculus [37] was “Active”. This molecule also gave an LD50 in the data set filed under Mus musculus [38] of 629 mg/kg. Also, the ED50 with Rattus norvegicus [40] came to 8.5 mg/kg. In addition, in the data set “in vivo”, the TD50 worked out at 813 mg/kg.

The values above are taken from ChEMBL document CHEMBL1124722, “Synthesis and anticonvulsant activity of 2-benzylglutarimides” (J Med Chem, 1990).
